Source: patent US20240368133A1, “Compounds for the Treatment of Pain, in Particular, Neuropathic Pain, and/or Other Diseases or Disorders that are Associated with AT2R and/or AT2R Mediated Signaling” (Confo Therapeutics N.V., priority 2021, published 2024)

Key:
Format in all cases: in vitro ADME
[1] = Liver microsomal stability, rat; details: male, pH 7.4, liver microsomes
Method: Mouse hepatic microsomes were isolated from pooled (50), perfused livers of male Balb/c mice. Rat hepatic microsomes were isolated from pooled (15), perfused livers of male Wistar rats. Isolation was performed according to the standard protocol (Hill, J. R. in Current Protocols in Pharmacology 7.8.1-7.8.11, Wiley Interscience, 2003). The batches of microsomes were tested for quality control using Imipramine, Propranolol and Verapamil as reference compounds.
Microsomal incubations were carried out in 96-well plates in 5 aliquots of 40 μL each (one for each time point). Liver microsomal incubation medium contained PBS (100 mM, pH 7.4), MgCl2 (3.3 mM), NADPH (3 mM), glucose-6-phosphate (5.3 mM), glucose-6-phosphate dehydrogenase (0.67 units/ml) with 0.42 mg of liver microsomal protein per ml. Control incubations were performed replacing the NADPH-cofactor system with PBS. Test compound (2 μM, final solvent concentration 1.6%) was incubated with microsomes at 37° C., shaking at 100 rpm. Incubations were performed in duplicates. Five time points over 40 minutes have been analyzed. The reactions were stopped by adding 12 volumes of 90% acetonitrile-water to incubation aliquots, followed by protein sedimentation by centrifuging at 5500 rpm for 3 minutes. […]. Supernatants were analyzed using the HPLC system coupled with tandem mass spectrometer (API3000 PE Sciex). Acquisition and analysis of the data were performed using Analyst 1.5.2 software (PE Sciex). The elimination constant (kel), half-life (t½) and intrinsic clearance (Clint) were determined in plot of […] versus time, using linear regression analysis:
Mouse hepatic microsomes were isolated from pooled, perfused livers of male CD1 mice. Rat hepatic microsomes were isolated from pooled, perfused livers of male Sprague Dawley rats. Dog hepatic microsomes were isolated from pooled, perfused livers of male Beagle dogs. The batches of microsomes were tested for quality control using Testosterone, Propranolol and Caffeine as reference compounds.
A 10 mM stock solution of compound in DMSO is diluted three-fold in DMSO. This pre-diluted compound solution is then further diluted to 2 μM in a 50 mM phosphate buffer (PBS, pH 7.4) and pre-warmed at 37° C. This compound dilution is mixed F2 with microsomal/cofactor mix at 37° C. under shaking at 300 rpm. Final reaction conditions are: 100 μL incubation volume, 1 μM of test compound (in duplicate), <0.1% DMSO, 0.5 mg/mL microsomes, 0.6 U/mL Glucose-6-phosphate-dehydrogenase (G6PDH, Roche, 10127671001), 3.3 mM MgCl2 (Sigma, M2670), 3.3 mM glucose-6-phosphate (Sigma, G-7879) and 1.3 mM NADP+ (Sigma, N-0505).
After 60 min of incubation at 300 rpm and 37° C., the reaction was stopped with 3 volumes of STOP solution (acetonitrile/MeOH 2/1 with diclofenac as internal standard). For the time point zero, 3 volumes of STOP solution were added to the compound dilution before the microsome mix was added. Six time points over 60 minutes have been analyzed. The samples of all time points were centrifuged, filtered and the supernatant analyzed by LCMS/MS (systems API4000).
The instrument responses (peak areas/IS peak area) were referenced to the zero time-point samples (considered as 100%) in order to determine the percentage of compound remaining.
Testosterone (1 μM) and Propranolol and Caffeine (1 μM) were used as reference compounds, being unstable and stable compounds respectively. If the microsomal stability values for these controls are not in the range determined by the historical data, the assay is not validated. The solubility of the compound in the final test concentration in 50 mM buffer pH 7.4 is checked by microscope to indicate whether precipitation is observed or not. If a precipitate is observed, no data of microsomal stability is generated.

CYP2D6 = CYP2D6 (Homo sapiens (Human), UniProt P10635); assay: CYP inhibition, CYP2D6; details: test compound at 10 μM, read-out: % Inhibition (PIN) 2D6
CYP2D6, sequence (P10635 whole entry): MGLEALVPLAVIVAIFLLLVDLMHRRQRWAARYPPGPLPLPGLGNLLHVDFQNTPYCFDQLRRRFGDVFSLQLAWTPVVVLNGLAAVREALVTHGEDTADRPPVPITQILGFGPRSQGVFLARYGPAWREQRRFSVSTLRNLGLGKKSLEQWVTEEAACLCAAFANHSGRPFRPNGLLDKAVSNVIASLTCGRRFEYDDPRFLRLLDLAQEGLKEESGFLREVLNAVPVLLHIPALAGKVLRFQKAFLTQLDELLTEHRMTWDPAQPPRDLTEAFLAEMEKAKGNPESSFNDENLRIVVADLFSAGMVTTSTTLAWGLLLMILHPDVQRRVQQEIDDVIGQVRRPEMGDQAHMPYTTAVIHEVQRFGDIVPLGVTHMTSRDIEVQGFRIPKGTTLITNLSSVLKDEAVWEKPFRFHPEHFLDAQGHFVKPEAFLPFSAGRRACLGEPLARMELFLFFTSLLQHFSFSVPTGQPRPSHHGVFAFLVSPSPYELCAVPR
Method: The aim of this assay is to determine the inhibitory potential of a test compound. A major concern for drug-drug-interaction is cytochrome P450 inhibition. Reversible CYP inhibition was determined in human liver microsomes using specific probe substrates for human cytochrome P450 isoenzymes CYP1A2, 2C9, 2C19, 2D6 and 3A4. […]
(§1) A 10 mM stock solution of test compound is prepared in methanol. This stock is further serially diluted 1:3 in methanol and then added to mixture containing 50 mM potassium phosphate buffer pH7.4, human liver microsomes (BD Gentest) and probe substrate. After pre-warming 5 min at 37° C., the reaction is started by adding co-factor mix ([…] glucose-6-phosphate, 1.7 mg/mL NADP, 6 U/mL of glucose-6-phosphate dehydrogenase), resulting in a final concentration of test compound at 10 μM (2% MeOH).
(§2) Final concentrations of co-factor mix components are as follows: 1.56 mg/mL glucose-6-phosphate, 0.34 mg/mL NADP, 1.2 U/mL of glucose-6-phosphate dehydrogenase.
(§3) After incubation at 37° C., the reaction (aliquot of 50 μL) is terminated with 150 μL CH3CN:MeOH (2:1) solution with internal standard (warfarin for 2C9, diclofenac for all other tested isoforms). Samples are centrifuged and the supernatant fractions analyzed by LC-MS/MS.
(§4) The instrument responses (ratio of test compound and internal standard peak areas) are referenced to those for solvent controls (assumed as 100%) in order to determine the percentage reduction in probe metabolism. Percent of control activity vs. concentration plots are generated and fitted using GraphPad Prism software to generate IC50.

CYP3A4 = CYP3A4 (Homo sapiens (Human), UniProt P08684); assay: CYP inhibition, CYP3A4; details: human; test compound at 10 μM, probe not marked; read-out: % Inhibition (PIN) 3A4
CYP3A4, sequence (P08684 whole entry): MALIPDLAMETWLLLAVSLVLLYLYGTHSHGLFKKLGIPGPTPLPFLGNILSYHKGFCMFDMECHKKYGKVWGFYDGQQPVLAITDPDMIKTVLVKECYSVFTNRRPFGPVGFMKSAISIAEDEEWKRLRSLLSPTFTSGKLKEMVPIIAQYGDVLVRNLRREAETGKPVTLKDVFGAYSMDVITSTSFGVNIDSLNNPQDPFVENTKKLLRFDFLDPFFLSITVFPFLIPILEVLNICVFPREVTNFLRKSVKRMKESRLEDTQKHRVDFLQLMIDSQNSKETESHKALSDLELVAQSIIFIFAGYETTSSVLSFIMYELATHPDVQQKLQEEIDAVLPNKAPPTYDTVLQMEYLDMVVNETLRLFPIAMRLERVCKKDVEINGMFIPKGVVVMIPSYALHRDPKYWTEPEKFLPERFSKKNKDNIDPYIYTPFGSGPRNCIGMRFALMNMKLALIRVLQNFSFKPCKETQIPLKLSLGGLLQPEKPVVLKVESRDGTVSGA
Method: The aim of this assay is to determine the inhibitory potential of a test compound. A major concern for drug-drug-interaction is cytochrome P450 inhibition. Reversible CYP inhibition was determined in human liver microsomes using specific probe substrates for human cytochrome P450 isoenzymes CYP1A2, 2C9, 2C19, 2D6 and 3A4.
The potential for CYP450 inhibition was assessed by performing in vitro inhibition studies using fluorogenic CYP450 substrates with the corresponding CYP450 enzymes and NADPH regeneration system (Vivid CYP450 Screening Kits) with some minor changes to the manufacturer's protocols. The fluorescent signal produced from reaction is directly proportional to the cytochrome P450 activity. In the cases when tested compounds interfere with the CYP450 enzyme-substrate reaction, the fluorescent signal decreases. In brief, the tested compounds were first dissolved in DMSO at 100× concentration (1 mM), and diluted in buffer to 2.5× concentration (25 μM). Then the 2.5× compound solutions were mixed with the Master Pre-mix consisting of Human CYP450+Oxidoreductase and NADP+Regeneration System (glucose-6-phosphate and glucose-6-phosphate dehydrogenase). After 10 minutes pre-incubation, the enzymatic reaction was initiated by the addition of a mix of NADPH and the appropriate CYP450 substrates. The plate was incubated for the desired reaction time (25 min for CYP1A2, CYP2C9, CYP2D6, and CYP3A4, 60 min for CYP2C19) after which Stop Reagent was added and fluorescence measured using SpectraMax Paradigm Multi-Mode Microplate Reader. All test points were performed in quadruplicates at concentration 10 μM (1% DMSO).
as §1, §2, §3, §4

| Compound | microsomal CLint [1] [µL/min/mg] | inhibition at 10 µM (CYP2D6) [%] | inhibition at 10 µM (CYP3A4) [%] |
| --- | --- | --- | --- |
| CCCCOC(=O)NS(=O)(=O)c1ccc(C(F)(F)F)cc1N1CCN(Cc2nc3ccccc3n2C)CC1 [Compound A-09, butyl N-[2-[4-[(1-methylbenzimidazol-2-yl)methyl]piperazin-1-yl]-4-(trifluoromethyl)phenyl]sulfonylcarbamate] | 33 |  |  |
| CCCCNC(=O)NS(=O)(=O)c1ccc(C(F)(F)F)cc1N1CCN(Cc2nc3ccccc3n2C)CC1 [Compound A-10, 1-butyl-3-[2-[4-[(1-methylbenzimidazol-2-yl)methyl]piperazin-1-yl]-4-(trifluoromethyl)phenyl]sulfonyl-urea] | 28 | 14.8 | 54.2 |
| CCCCNC(=O)NS(=O)(=O)c1ccc(C)cc1N1CCN(Cc2nc3ccccc3n2C)CC1 [Compound A-12, 1-butyl-3-[4-methyl-2-[4-[(1-methylbenzimidazol-2-yl)methyl]piperazin-1-yl]phenyl]sulfonyl-urea] | 23 |  |  |
| CC(C)Cc1ccc(-c2nn[nH]n2)c(N2CCN(Cc3nc4ccccc4n3C)CC2)c1 [Compound A-20, 2-[[4-[5-isobutyl-2-(2H-tetrazol-5-yl)-phenyl]piperazin-1-yl]methyl]-1-meth-yl-benzimidazole] | 28 |  |  |
| CC(C)Oc1ccc(-c2nn[nH]n2)c(N2CCN(Cc3nc4ccccc4n3C)CC2)c1 [Compound A-24, 2-[[4-[5-isopropoxy-2-(2H-tetrazol-5-yl)phenyl]piperazin-1-yl]methyl]-1-methyl-benzimidazole] | 7 | 3.85 | 59.5 |
| CC(C)Cc1ccc(-c2nn[nH]n2)c(N2CCN(Cc3nc4ccccc4c(=O)[nH]3)CC2)c1 [Compound A-31, 2-[[4-[5-isobutyl-2-(2H-tetrazol-5-yl)phenyl]piperazin-1-yl]methyl]-3H-quinazolin-4-one] | 5 | 23.1 | 94.6 |
| CC(C)Oc1ccc(-c2nn[nH]n2)c(N2CCN(Cc3nc4ccccc4c(=O)[nH]3)CC2)c1 [Compound A-32] | 13 | 38.2 | 68.2 |
| CC(C)Oc1ccc(-c2nn[nH]n2)c(N2CCN(Cc3nc4ccccc4s3)CC2)c1 [Compound A-51, 2-[[4-[5-isoprop-oxy-2-(2H-tetrazol-5-yl)phenyl]piper-azin-1-yl]methyl]-1,3-benzothiazole] | 1 |  |  |
| Cc1cc(CN2CCN(c3cc(CC(C)C)ccc3-c3nn[nH]n3)CC2)no1 [Compound A-82, 3-[[4-[5-isobutyl-2-(2H-tetrazol-5-yl)phenyl]piperazin-1-yl]methyl]-5-methyl-isoxazole] | 4 | -2.54 | 50.6 |
| CC(C)Cc1ccc(-c2nn[nH]n2)c(N2CCN(Cc3nccn3C)CC2)c1 [Compound A-83, 1-[5-isobutyl-2-(2H-tetrazol-5-yl)-phenyl]-4-[(1-meth-ylimidazol-2-yl)-methyl]piperazine] | 3 | -0.65 | 38.7 |
| CC(C)Cc1ccc(-c2nn[nH]n2)c(N2CCN(Cc3ccnn3C)CC2)c1 [Compound A-84, 1-[5-isobutyl-2-(2H-tetrazol-5-yl)phenyl]-4-[(1-methylpyrazol-5-yl)methyl]piperazine] | 7 | -7.67 | 49.1 |
| CC(C)Cc1ccc(-c2nn[nH]n2)c(N2CCN(Cc3ncccn3)CC2)c1 [Compound A-88] | 7 | 6.32 | 21.1 |
| CC(C)Cc1ccc(-c2nn[nH]n2)c(N2CCN(Cc3cccnn3)CC2)c1 [Compound A-90, 3-[[4-[5-isobutyl-2-(2H-tetrazol-5-yl)phenyl]piperazin-1-yl]methyl]pyridazine] | 4 | 1.84 | 55.3 |
| CC(C)Cc1cc(F)c(-c2nn[nH]n2)c(N2CCN(Cc3cccnn3)C(C)C2)c1 (stereo not drawn) [Compound A-173, 3-[[4-[3-fluoro-5-isobutyl-2-(2H-tetrazol-5-yl)phenyl]-2-methyl-piperazin-1-yl]methyl]pyridazine] | 12 | 16.3 | 29.4 |
| CC(C)Cc1cc(F)c(-c2nn[nH]n2)c(N2CCN(Cc3cccnn3)[C@@H](C)C2)c1 [Compound A-174, 3-[[(2S)-4-[3-fluoro-5-isobutyl-2-(2H-tetrazol-5-yl)phenyl]-2-methyl-piperazin-1-yl]methyl]pyridazine] | < 17.3 | 9.35 | 36 |
| CCC1CN(Cc2cccnn2)CCN1c1cc(CC(C)C)cc(F)c1-c1nn[nH]n1 (stereo not drawn) [Compound A-181, 3-[[3-ethyl-4-[3-fluoro-5-isobutyl-2-(2H-tetrazol-5-yl)phenyl]piperazin-1-yl]methyl]pyridazine] | 5 |  |  |
| CC(C)Cc1cc(F)c(-c2nn[nH]n2)c(N2CC(C)N(Cc3cccnn3)CC2C)c1 (stereo not drawn) [Compound A-183, 3-[[4-[3-fluoro-5-isobutyl-2-(2H-tetrazol-5-yl)phen-yl]-2,5-dimethyl-piperazin-1-yl]-methyl]pyridazine] | 7 |  |  |
